“Also recorded” adds a separate entry of the source.
Columns and labels:
Human hair follicles [1] = assay: Gene expression in human hair follicles by DNA microarray analysis; assay type: cell-based
Method: Human hair follicles were obtained from human skin fragments (obtained by plastic surgery) and grown in supplemented William's E medium supplemented with penicillin/streptomycin, L-glutamine (2 mM/L), insulin (10 μg/mL and hydrocortisone (8 nM/L). Hair follicle growth was assessed via length measurements (days 0, 4, and 7). Triiodothyronine (T3, 30 μM/L) was used as positive control. The effect of steviol (at 0.625-5 μg/mL) was tested in parallel. On day 7, RNA was extracted from hair follicles that had been subjected to different treatments (control, T3, steviol). RNA was processed for Affymetrix® DNA microarray analysis in order to identify effects of compounds on gene expression. Where appropriate, RNA expression levels were further quantified by RT-PCR using the ABI 7900 Taqman instrumentation. […] Global effects of steviol on gene expression were determined by transcriptomics i.e. DNA microarray analysis. The obtained data were processed with Genedata software tools. […] Thus another aspect of this invention is a method of up-regulating at least one of the genes listed in Table 3 comprising administering steviol and observing a hair growth effect.

whole mouse skin = assay: Gene expression in whole mouse skin by quantitative RT-PCR after dietary supplementation; assay type: in vivo, mice; conditions: eight weeks
Method: The effect of steviol on gene expression was also analysed in whole mouse skin (also containing hair follicles). To this aim, mice were fed a normal diet or a diet supplemented with steviol (see also relevant data above). After eight weeks of supplementation, mice were sacrificed and skin was isolated and freed from hair. Quantitative RT-PCR was performed for selected genes using the same technology as described for hair follicles (see above). Remarkably, we identified changes in expression levels of some genes that are involved in skin physiology and homeostasis.

human hair follicle = assay: mRNA level of marker genes in human hair follicle by RT-PCR; assay type: cell-based
Method: Human hair follicles were obtained from human skin fragments (obtained by plastic surgery) and grown in supplemented William's E medium supplemented with penicillin/streptomycin, L-glutamine (2 mM/L), insulin (10 μg/mL and hydrocortisone (8 nM/L). Hair follicle growth was assessed via length measurements (days 0, 4, and 7). Triiodothyronine (T3, 30 μM/L) was used as positive control. […] On day 7, RNA was extracted from hair follicles that had been subjected to different treatments (control, T3, steviol). RNA was processed for Affymetrix® DNA microarray analysis in order to identify effects of compounds on gene expression. Where appropriate, RNA expression levels were further quantified by RT-PCR using the ABI 7900 Taqman instrumentation. […] The mRNA level of some marker genes involved in growth and/or differentiation of cells in the skin and in hair follicle was further determined by RT-PCR and is shown in Table 4.

Human hair follicles [2] = assay: Growth of human hair follicle (length measurements); assay type: cell-based
Method: Human hair follicles were obtained from human skin fragments (obtained by plastic surgery) and grown in supplemented William's E medium supplemented with penicillin/streptomycin, L-glutamine (2 mM/L), insulin (10 μg/mL and hydrocortisone (8 nM/L). Hair follicle growth was assessed via length measurements (days 0, 4, and 7). Triiodothyronine (T3, 30 μM/L) was used as positive control. The effect of steviol (at 0.625-5 μg/mL) was tested in parallel. On day 7, RNA was extracted from hair follicles that had been subjected to different treatments (control, T3, steviol). RNA was processed for Affymetrix® DNA microarray analysis in order to identify effects of compounds on gene expression. Where appropriate, RNA expression levels were further quantified by RT-PCR using the ABI 7900 Taqman instrumentation.

aged C57B1/6J mice = assay: Chronic steviol treatment, subjective rating of fur and skin condition pre- and post-treatment; assay type: in vivo; conditions: 120 mg/kg/d in diet, 6 weeks, pre- vs post-treatment
Method: FIG. 2 Effects of chronic steviol treatment (120 mg/kg, p.o., 6 weeks) on (a) fur colour and (b) hair loss in aged C57B1/6J mice. […] [table] Female, aged, C57B1/6J mice (22-24 months of age) were assessed for their fur quality at the start and end of a six-week study. Prior to commencement of treatment, photographs were taken of all mice whilst under light anaesthesia (2.2-2.4% isofluorane). Mice were then fed either placebo diet or diet supplemented with steviol (120 mg/kg/d) for six weeks. At the end of the six week treatment phase, mice were again anaesthetised and further photographs were taken. Eleven participants with extensive experience of performing experimental studies using mice were asked to complete the same questionnaire (see Table 1), to enable subjective rating of a number of parameters of fur quality and of the appearance of skin wounds, by assessing the photographs taken before and after treatment. Statistical analyses were performed using Prism 5 (GraphPad Software, La Jolla, Calif., USA) and comprised two-way ANOVA (test factors: Time and Treatment), followed by Bonferroni post-hoc tests, where appropriate.

C=C1C[C@@]23CC[C@H]4[C@@](C)(CCC[C@@]4(C)C(=O)O)[C@@H]2CC[C@]1(O)C3 [Steviol, steviol]
Ratio of steviol-treated/untreated: CASP8 and FADD-like apoptosis regulator (Human hair follicles [1]; day 7, microarray): 2.58 | Ratio of steviol-treated/untreated: Chemokine (C-X-C motif) ligand 12 (stromal cell-derived factor 1) (Human hair follicles [1]; day 7, microarray): 2.22 | Ratio of steviol-treated/untreated: Collagen, type IV, alpha 6 (Human hair follicles [1]; day 7, microarray): 2.04 | Ratio of steviol-treated/untreated: Fibroblast growth factor 7 (keratinocyte growth factor) (Human hair follicles [1]; day 7, microarray): 2.91 | Ratio of steviol-treated/untreated: Insulin-like growth factor 1 receptor (Human hair follicles [1]; day 7, microarray): 2.00 | Ratio of steviol-treated/untreated: Integrin, alpha 6 (Human hair follicles [1]; day 7, microarray): 2.15 | Ratio of steviol-treated/untreated: TIMP metallopeptidase inhibitor 3 (Human hair follicles [1]; day 7, microarray): 2.32 | Ratio of steviol-treated/untreated: Topoisomerase (DNA) II alpha 170 kDa (Human hair follicles [1]; day 7, microarray): 2.45 | Ratio of steviol-treated/untreated: Transmembrane protein with EGF-like and two follistatin-like domains 2 (Human hair follicles [1]; day 7, microarray): 3.10 | biological pathways whose gene expression is modulated (Human hair follicles [1]; microarray, Genedata pathway mapping): modulated gene expression of the pathways of epidermal development, ectoderm development and keratinocyte differentiation with a high statistical significance | % of control (based on fold-change): CXC10 (whole mouse skin): 132 ± 50 % of control | % of control (based on fold-change): IL-6 (whole mouse skin): 130 ± 31 % of control | % of control (based on fold-change): MMP-8 (whole mouse skin): 73 ± 23 % of control | % of control (based on fold-change): MMP-13 (whole mouse skin): 53 ± 9 % of control | % of control (based on fold-change): PPAR-δ (whole mouse skin): 60 ± 37 % of control | Fold changes (versus control): Integrin alpha-6 (human hair follicle; 0.625 μg/mL): 1.62 ± 0.06 fold | Fold changes (versus control): COX-2 (human hair follicle; 1.25 μg/mL): 0.46 ± 0.17 fold | Fold changes (versus control): HO-1 (human hair follicle; 1.25 μg/mL): 0.64 ± 0.08 fold | Fold changes (versus control): Involucrin (human hair follicle; 1.25 μg/mL): 0.51 ± 0.22 fold | Fold changes (versus control): Keratin 6 (human hair follicle; 10 μg/mL): 1.33 ± 0.11 fold | Growth (% of control) (Human hair follicles [2]; 0.625 μg/mL): 122 % of control | Growth (% of control) (Human hair follicles [2]; 1.25 μg/mL): 121 % of control | Growth (% of control) (Human hair follicles [2]; 2.5 μg/mL): 113 % of control | Growth (% of control) (Human hair follicles [2]; 5 μg/mL): 117 % of control | elongation of hair follicles (Human hair follicles [2]; 0.625-5 μg/mL): dose-dependently favoured the elongation of hair follicles | fur colour (greying; subjective rating score) (aged C57B1/6J mice): significantly improved hair colour (i.e. reduced greying); also recorded: significantly improved fur colour | hair loss (subjective rating score) (aged C57B1/6J mice): significantly improved (i.e. reduced) hair loss | hair loss (subjective rating score) (aged C57B1/6J mice; listed as steviol): significant reduction of hair loss
